Measured values reported in EP4410284A1, “COMPOUND AND METHOD FOR THE TREATMENT OF ZELLWEGER SPECTRUM DISORDER” (Apteeus, priority 2023, dated 2024).
pEC50: −log10 of the molar value. Where a name gives a salt, the structure may show the parent alone. Read-outs that look alike come from different tables or passages of the source.

Columns and labels:
[1] = tested on: PEX405 cells; assay: Catalase import immunofluorescence, high-content screening (% importing cells); format: cell-based, human; conditions: PEX405 cells, 3 days
[2] = tested on: GM16513 cells; assay: as above; format: cell-based, human; conditions: GM16513 cells, 3 days; for pEC50 / Emax: Homo sapiens, 72 h, dose response with 6 concentrations; for pEC50: read-out: EC50; for Emax: read-out: Max Efficacy (% Importing cells)
[3] = tested on: PEX405 cells; format: cell-based; conditions: 3 days, PI positive cells (dead cells)
[4] = tested on: GM16513 cells; format: cell-based; conditions: 3 days, PI positive cells (dead cells)

pEC50 [2]	% PI+ cells ([3]; 1.3 µM) [%]	% PI+ cells ([3]; 10 µM) [%]	% PI+ cells ([4]; 1.3 µM) [%]	% PI+ cells ([4]; 10 µM) [%]	Compound	% Importing cells ([1]; 1.3 µM) [%]	% Importing cells ([1]; 10 µM) [%]	% Importing cells ([2]; 1.3 µM) [%]	% Importing cells ([2]; 10 µM) [%]	Emax [2] [%]
4.84	1	1	1	2	O=C(NO)c1ccc(CN(c2cnccn2)c2cnccn2)cc1 [KA2507]	2	18	17	52	100
	0	74	1	77	O=C(/C=C/c1ccc(O)c(O)c1)c1ccc(O[C@@H]2O[C@H](CO)[C@@H](O)[C@H](O)[C@H]2O)c(O)c1O [Marein]	5	4	20	22	
		4		4	O=C(CCCCCCC(=O)Nc1ccc([C@H]2O[C@@H](CSc3nc(-c4ccccc4)c(-c4ccccc4)o3)C[C@@H](c3ccc(CO)cc3)O2)cc1)NO [Tubacin]		5		39	
	0	1	1	1	COC(=O)c1ccc(OC(=O)CCCCCCC(=O)NO)cc1 [Remetinostat]	3	2	12	14	
	0	3	1	3	CCN1CCN(C(c2cccnc2)c2cc(Cl)c3cccnc3c2O)CC1 (stereo not shown) [BRD 4354]	4	10	21	30	
	45	56	31	35	O=C(/C=C/c1ccc(CN(CCO)CCc2c[nH]c3ccccc23)cc1)NO [Dacinostat]	25	0	88	76	
	0	1	1	7	CC1(C)c2cccc(C(=O)NO)c2CN1c1cnc(C(F)(F)F)cn1 [FT895]	1	0	14	4	
	9	61	11	40	Cl.O=C(NO)c1ccc(Cn2cc(-c3ccc(CN4CCCC4)cc3)nn2)cc1 [FNDR-20123]	7	0	84	47	
	0	1	1	1	O=C(NO)c1cccc(C(=O)NCCc2ccccc2)c1 [BRD73954]	3	4	19	23	
	0	2	1	1	Cc1cc(Cl)ccc1OCCCC(=O)NO [Droxinostat]	3	4	12	23	
	1	1	1	3	Nc1cc(F)ccc1NC(=O)/C=C/c1cnn(C/C=C/c2ccccc2)c1 [RGFP966]	1	2	11	12	
	2	1	1	1	CCOC(=O)NCCCC(=O)NCCc1ccccc1 [Santacruzamate A]	3	3	24	25	
	1	2	1	3	Cc1ccc(NC(=O)CCCCCC(=O)Nc2ccccc2N)cc1 [Pimelic Diphenylamide 106]	4	17	22	52	
	1	2	1	4	O=C(NO)c1ccc(CNc2cccc3cccnc23)cc1 [MPT0G211]	6	19	29	65	
5.82	0	2	1	4	Nc1cc(F)ccc1NC(=O)c1ccc(CNC(=O)/C=C/c2cccnc2)cc1 [Tucidinostat]	14	28	43	64	70
7.30	15	54	12	37	O=C(NO)c1cnc(N2C[C@@H]3[C@H](C2)[C@H]3NCc2ccc3cc(F)ccc3n2)nc1 [Nanatinostat]	14	0	88	78	93
7.52	24	53	17	38	Cn1cc(CNCC2CCN(c3ncc(C(=O)NO)cn3)CC2)c2ccccc21 [Quisinostat]	40	26	98	86	95
	0	1	1	1	O=C(NCC1(c2nc(-c3ccccc3)cs2)CCOCC1)c1cccc(-c2noc(C(F)(F)F)n2)c1 [TMP269]	3	3	11	7	
	1	1	1	2	CC(=O)Nc1ccc(C(=O)Nc2ccccc2N)cc1 [Tacedinaline]	2	4	15	18	
	1	1	2	1	ACY-1083	5	4	17	42	
8.50	48	49	30	32	Cc1[nH]c2ccccc2c1CCNCc1ccc(/C=C/C(=O)NO)cc1 [Panobinostat]	6	18	86	44	93
5.85	1	4	2	8	CN(C)Cc1ccc(S(=O)(=O)n2ccc(/C=C/C(=O)NO)c2)cc1 [Resminostat (hydrochloride), Resminostat]	13	19	60	83	86
	1	4	3	3	Nc1ccccc1NC(=O)c1ccc(Cn2cc(-c3ccc(C(=O)NCc4cccnc4)cc3)nn2)cc1 [Nampt-IN-3]	33	31	80	74	
	1	1	2	3	Nc1ccccc1NC(=O)CCCCCCC(=O)Nc1ccccc1 [BML-210]	7	19	24	73	
	0	0	1	1	CC(=O)N[C@@H](CCCCN)C(=O)Nc1ccc2c(C)cc(=O)oc2c1 [Ac-Lys-AMC]	3	1	18	14	
	2	66	5	34	Nc1ccccc1NC(=O)c1ccc(CCCC(=O)Nc2ccc([C@@H]3C[C@H]3N)cc2)cc1 [Corin]	17	11	59	44	

Compound	pEC50 [2]	% PI+ cells ([3]; 1.3 µM) [%]	% PI+ cells ([3]; 10 µM) [%]	% PI+ cells ([4]; 1.3 µM) [%]	% PI+ cells ([4]; 10 µM) [%]	% Importing cells ([1]; 1.3 µM) [%]	% Importing cells ([1]; 10 µM) [%]	% Importing cells ([2]; 1.3 µM) [%]	% Importing cells ([2]; 10 µM) [%]	Emax [2] [%]
O=C(CCCCCCC(=O)NO)NO [Suberoyl bis-hydroxamic acid]		1	1	1	2	4	10	13	57	
Oc1cc(O)cc(/C=C/c2c(O)cccc2O)c1 [Gnetol]		1	1	1	1	2	3	12	9	
